Assay [1] concerns the target T1, FtsZ-GMPCPP polymers (BsFtsZ) (Bacillus subtilis, UniProt P17865).
T1 construct: made in house
Briefly: Binding titration of the fluorescent probes to FtsZ polymers by fluorescence anisotropy. The procedure: (§1) FtsZ from B. subtilis (BsFtsZ) was prepared as described previously.[35] FtsZ was assembled in 50 mM N-(2-hydroxyethyl)piperazine-N′-ethanesulfonic acid (HEPES)-KOH, 50 mM KCl, 1 mM ethylenediaminetetraacetic acid (EDTA), pH 6.8 (HEPES buffer) plus 10 mM MgCl2, and 1 mM GTP or 0.1 mM GMPCPP at 25 °C. FtsZ assembly was monitored by light scattering.[34]
The fluorescence spectra and anisotropy values of the different probes were acquired with a Fluoromax-4 (Horiba Jobin Yvon) photon-counting L-format spectrofluorometer using 2 mm × 10 mm cells at 25 °C, employing the maximum excitation and emission wavelength for each probe with 2 and 5 nm bandwidths, respectively. Anisotropy values were automatically measured as r = (Ivv – G Ivh)/(Ivv + 2G Ivh), where the subscripts refer to the vertical (v) or horizontal (h) positions of the excitation (first subscript) and emission (second subscript) polarizers, and G = Ihv/Ihh. Total intensity values were simultaneously determined as IT = Ivv +2G Ivh. Note that measurement correction procedures with T-format (double channel) fluorometers and with plate readers are slightly different.
FtsZ (10–15 μM) was assembled in HEPES buffer, 10 mM MgCl2, 50 μM GMPCPP at 25 °C for 10 min, and then 0.15% (v/v) glutaraldehyde[36] (distilled grade for microscopy, TAAB Laboratories, U.K.) was added to the solution that was incubated at 25 °C for 10 min more. (This was the minimal glutaraldehyde concentration determined to stabilize FtsZ polymers specifically binding probe 1.) The remains of the cross-linking agent were quenched by adding 60 mM NaBH4, the sample was incubated on ice for 10 min and degassed.[36] Cross-linked polymers were centrifuged for 10 min at 8200g (5000 rpm) and 4 °C in 15 mL Falcon tubes employing a Rotina 380R (Hettich) centrifuge, the supernatant was removed and the pellet was resuspended in the same volume of HEPES buffer, 10 mM MgCl2, containing 5 μM GMPCPP. Fixed FtsZ polymers were active in binding assays after more than 2 days at 4 °C; they could also be frozen in liquid nitrogen with a small loss of binding capacity. […] Cross-linked polymers of SaFtsZ were similarly prepared.
Binding affinity of the probes to FtsZ was measured by an increase in anisotropy of the probe (adapted from ref ([49])). Fixed concentrations of the probes (3 μM) were titrated with different FtsZ polymer concentrations (0–40 μM) in HEPES buffer with Mg^2+, to obtain the anisotropy increment, Δrmax, corresponding to the bound probe. The increase in anisotropy was plotted against the FtsZ polymer concentration (calculated by subtracting from the total protein concentration the critical concentration for polymerization under the same conditions) and iteratively least-squares fitted with an isotherm of binding to one site. The estimated values of Δrmax were used to approximate the free FtsZ concentrations, and these new values were employed again until an unchanging Δrmax value was obtained. The convergent data were used to calculate the binding constant of the fluorescent probe to FtsZ polymers (Table S1).
On the technique in general: Fluorescence polarisation rises when a labelled molecule tumbles more slowly, as on binding a larger partner.

The target of a further assay is T2, BsFtsZ (Bacillus subtilis, UniProt P17865).
T2 construct: made in house
T2 sequence (P17865 whole entry): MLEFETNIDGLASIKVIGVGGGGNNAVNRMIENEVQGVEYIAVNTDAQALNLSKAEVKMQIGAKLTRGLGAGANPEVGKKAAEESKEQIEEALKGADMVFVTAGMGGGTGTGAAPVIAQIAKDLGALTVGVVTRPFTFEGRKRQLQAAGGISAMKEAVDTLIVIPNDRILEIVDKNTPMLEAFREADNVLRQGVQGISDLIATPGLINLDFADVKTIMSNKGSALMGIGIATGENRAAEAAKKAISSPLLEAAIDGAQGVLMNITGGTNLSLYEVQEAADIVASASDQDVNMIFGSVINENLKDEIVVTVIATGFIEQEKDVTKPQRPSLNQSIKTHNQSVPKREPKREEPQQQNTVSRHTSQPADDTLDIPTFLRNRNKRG
Briefly: Fluorescence anisotropy of probes after consecutive additions of FtsZ, GMPCPP, MgCl2 and PC190723. Format: binding. The procedure:
(A) Fluorescence anisotropy values of the free probes (10 μM) in buffer, to which FtsZ (10 μM, unassembled) was added, followed by the slowly hydrolyzable GTP analogue GMPCPP (0.1 mM). BsFtsZ polymerization was then induced by the addition of MgCl2 (10 mM) and anisotropy values were recorded 5–10 min later. Nonfluorescent PC190723 (10 μM) was subsequently added to displace the fluorescent probe and anisotropy was measured 5 min later. (B) Fluorescence microscopy images of B. subtilis cells treated for 1.5 h with the minimal division inhibitory concentrations (MDC) of (S)-2 and each enantiomer of 5 (Table S1), acquired employing the probe fluorescence.
as §1

For the next assay, the system named is B. subtilis. Briefly: Minimal growth inhibitory concentration (broth macrodilution), B. subtilis. The assay is classed as cell-based, Bacillus subtilis. The note with it: Table S1, fluorescent probes. The method, boiled down:
(§2)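 Strains grown in cation-adjusted Mueller–Hinton broth at 37 °C (B. subtilis SU570 at 30 °C) to A600 0.1–0.2, then exposed to compounds or DMSO. MIC by broth macrodilution; division phenotype assessed by microscopy and cell measurement.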

The subject of the next assay is S. aureus Mu50. Briefly: Minimal growth inhibitory concentration (broth macrodilution), S. aureus Mu50. The assay is classed as cell-based, Staphylococcus aureus. A digest of the protocol:
as §2

Assay [2] has as its target T3, glutaraldehyde-stabilized FtsZ polymers (Bacillus subtilis, UniProt P17865).
T3 construct: made in house
Briefly: Stoichiometry of probe binding by polymer pelleting (centrifugation assay). The procedure: The stoichiometry of binding of (R)-5 to stabilized FtsZ polymers was measured using a centrifugation assay adapted from ref ([49]). Then, FtsZ polymers (10 μM) were incubated at 25 °C in HEPES buffer, 10 mM MgCl2, 2% DMSO, and 0.1 mM GMPCPP at 25 °C in the presence of different probe concentrations, in a final volume of 0.1 mL. The samples were then centrifuged for 20 min at 100 000 rpm and 25 °C in a TLA-100 rotor. After centrifugation, the supernatant was carefully withdrawn and the pellets were resuspended in the same volume of buffer. The concentration of the free probe was determined spectrophotometrically in the supernatant, employing an extinction coefficient ε483 = 25 400 M^–1 cm^–1 for (R)-5 and the concentration of probe bound to FtsZ was calculated as the difference of the known total concentration of probe minus the free concentration. To calculate the FtsZ polymer concentration, 5 μL of the resuspended pellet was applied to sodium dodecyl sulfate (SDS)-12% polyacrylamide gels, stained with Coomassie blue, scanned with a CS-800 calibrated densitometer (BioRad), and the protein bands quantified using Quantity One software (BioRad).

The mark [3] stands for this setting: FtsZ-GMPCPP polymers, best fit values from binding titrations.
[4] abbreviates: binding to stabilized FtsZ polymers.

Values after ≈ are worked out from the molar mass of the structure shown.

T1 sequence (P17865 whole entry): as above
T3 sequence (P17865 whole entry): as above

The term Kd denotes a measure of binding affinity in units of concentration. `CCC[C@H](COc1ccc(F)c(C(N)=O)c1F)Nc1ccc([N+](=O)[O-])c2nonc12` [(R)-5]: in assay [1] (setting [3]), the Imax/Imin turned out to be 6.2, the “rmax (all probe bound)” value came out at 0.272, the “rmin (free probe)” value stood at 0.029 and the dissociation constant Kd came out at 1900 ± 600 nM. Moreover, in assay [1] (setting [4]), the Kd was 2000 ± 500 nM, the Imax/Imin worked out at 5.0, the “rmax (all probe bound)” value is listed as 0.268 and the “rmin (free probe)” value amounted to 0.029. Moreover, at BsFtsZ (data from Fig. 5A), the “Fluorescence anisotropy (r): + PC190723” value worked out at 0.052. In addition, the “Fluorescence anisotropy (r): free probe” value at BsFtsZ (probe 10 μM in buffer) was determined as 0.029. Moreover, the “Fluorescence anisotropy (r): + FtsZ (unassbld.)” value at BsFtsZ (probe 10 μM, FtsZ 10 μM) came to 0.041. The “Fluorescence anisotropy (r): + GMPCPP” value at BsFtsZ (probe 10 μM, FtsZ 10 μM, GMPCPP 0.1 mM) is 0.040. Moreover, the “Fluorescence anisotropy (r): + MgCl2 (polymer)” value on BsFtsZ (probe 10 μM, FtsZ 10 μM, GMPCPP 0.1 mM, MgCl2 10 mM, 5–10 min) stood at 0.227. Further, in the assay on B. subtilis, the MIC B. subtilis was determined as 25 µM (≈ 10.5 µg/mL). Also, the “effect on growth of S. aureus Mu50, in words” value in the assay with S. aureus Mu50 (250 µM) is “partially inhibited growth”. For the same molecule, in the assay on S. aureus Mu50 (Table S1, fluorescent probes), the MIC S. aureus Mu50 was above 250 µM. Moreover, in assay [2], the “stoichiometry of probe binding” value is given as 0.6 molecules per FtsZ monomer.

Values taken from publication PMC8478281, “Targeting the FtsZ Allosteric Binding Site with a Novel Fluorescence Polarization Screen, Cytological and Structural Approaches for Antibacterial Discovery” (Journal of Medicinal Chemistry, 2021).
